The source of these data is patent US11771711B2, “Substituted pyridines as DNMT1 inhibitors” (GlaxoSmithKline Intellectual Property Development Limited, priority 2021, dated 2023).

One data set deals with Full-length human DNMT1 (Homo sapiens (Human), UniProt P26358). The data set is described as follows: DNMT1 Scintillation Proximity Assay (SPA) - Assay A. The data set is classed as biochemical. The following applies: footnote a: DNMT1 full length. The protocol: DNMT1 Scintillation Proximity Assay (SPA)—Assay A (Full-Length Human DNMT1)
This assay used Scintillation Proximity technology in a signal increase format to evaluate the potency of compounds. Full-length human DNMT1, hemi-methylated DNA duplex*, and tritiated SAM were utilized to monitor activity. Assay plate creation consisted of the following parameters: 500 nL of an 11 pt, 3-fold serial dilution of compound was stamped into a 96 well Costar plate (#3884). Assay buffer mix was made on the day of assay consisting of: 20 mM Tris pH 7.5, 1 mM DTT, 1 mM EDTA, and 5% glycerol. A 2× enzyme mix was then prepared consisting of 30 nM DNMT1 protein (full length human DNMT, made in house) in assay buffer. The 2× substrate mix was made last, and consisted of 160 nM 40mer hemi-methylated DNA*, 0.48 μM ^3H-SAM, and 2.92 μM cold SAM in assay buffer (^3H-SAM is added last). The quench (1 mM SAH) was made in bulk and frozen at −20 until the time of use. Ten uL of the 2× substrate mix was added to the entire plate using a multichannel electronic pipette. Plate was shaken for at least 10s between additions to ensure mixing. Next, 20 uL of 2× quench mix was added to column 12 using a multichannel pipette (shake plate). Using a multichannel electronic pipette, 10 uL of 2× enzyme mix was added to the full plate starting with column […] (column 12 last to avoid pre-quench carryover). Plates were incubated on the shaker for 30 minutes with the plate covered. At the end of the incubation period, 20 uL of quench mix were added to all wells except column 12 (shake plate) followed by the addition of 20 uL of 3 mg/mL PerkinElmer PEI PVT SPA Beads (Cat. #RPNQ0097) diluted in DNAse free water and allowed to shake for at least 30 minutes. Plates were sealed with a clear seal and centrifuged at 500 rpm for 1 min. Plates were read on a MicroBeta (Perkin Elmer, read for ^3H (1 min/well).
Microsoft Excel was used to analyze the data up to Vi/Vo and GraFit was used to fit the data. Responses were normalized to the uninhibited (DMSO) and pre-quenched controls within each plate. Dose-response curves were analyzed using a three-parameter logistic fit with Ymin constrained to 0 and results were expressed as IC50 values.
Final assay conditions: 20 mM Tris (Hampton Research—HR-937-06), pH 7.5, 1 mM DTT (Invitrogen—P2325), 1 mM EDTA (Invitrogen—AM9260G), 5% Glycerol (Teknova—G1796), 0.02% Pluronic F127 (Life Technologies—P6866), 15 nM DNMT1 (full length human DNMT1—GSK made in-house), 240 nM ^3H-SAM (PerkinElmer—NET155H001MC), 1460 nM cold SAM (New England Biolabs—B9003S) and 80 nM 40-mer hemi-methylated DNA Oligonucleotide (Integrated DNA Technologies—custom), 1 mM SAH (Sigma A9384), and 1 mg/mL PEI PVT SPA Beads (Perkin Elmer RPNQ0097) resuspended in water.
On the technique in general: Scintillation proximity formats need no separation of bound from free tracer.

The next data set is described as follows: physchem. The following applies: FaSSIF buffer, pH 6.5, fassif, thermodynamic from solid.
For data set [1] the following is noted: internal standards tested alongside in FaSSIF assay; cited from earlier work.
Data set [2] can be described thus: Rat pharmacokinetic study (oral bioavailability). The data set is classed as in vivo. To be noted: blood, PO gavage vs 60 minute IV infusion, 5% DMA/15% Solutol. The protocol:
Pharmacokinetic Studies: All studies were conducted in accordance with the GSK Policy on the Care, Welfare and Treatment of Laboratory Animals and were reviewed either by the Institutional Animal Care and Use Committee at GSK or by the ethical review process at the institution where the studies were performed. Pharmacokinetic studies for example 2 were conducted using non-fasted, Male Wistar Han rats, n=3/dose route and for reference compound 4, non-fasted male Sprague-Dawley rats, n=2/dose route in a non-crossover design. Compounds were prepared as solutions in 5% DMA/15% Solutol and administered as a 60 minute IV infusion and PO gavage. Blood samples were collected serially at multiple time points from pre-dose through 24 hours post dose and the analytes were quantified by LC/MS/MS. The percent bioavailability was calculated by comparison of the dose normalized Area Under the Curve (DNAUC) obtained from PO dosing with the DNAUC from the IV route [(PO DNAUC/IV DNAUC)*100].

Data set [3] has as its target Human truncated DNMT1(601-1600) (Homo sapiens (Human), UniProt P26358). The data set is described as follows: DNMT1 Scintillation Proximity Assay (SPA) - Assay B. It is filed as biochemical. To be noted: footnote b: DNMT1 truncate. The protocol:
DNMT1 Scintillation Proximity Assay (SPA)—Assay B (Human Truncated DNMT1(601-1600))
This assay used Scintillation Proximity technology in a signal increase format to evaluate the potency of compounds. Human truncated DNMT1(601-1600), single hemi-methylated CpG site oligonucleotide, and Tritiated SAM were utilized to monitor activity. Assay plate creation consisted of the following parameters: 10 mM Compounds (11-point, 3-fold serial dilution) were stamped at 100 nL per well (100× in 100% DMSO) into a Griener white LV 384 well plate (#784075). Assay buffer mix was made on the day of assay consisting of: base buffer: (500 mM Hepes, ph 8, 1M MgCl2 made in advance, stored at room temp as a stock), 10% NP40-Surfact AMPS, 10% Ultrapure BSA 50 mg/ml, and 2M DTT (DL-Dithiolthreitol). The 2× enzyme mix was then prepared consisting of: DNMT1 protein (truncate human DNMT1—601-1600, made in house at 16.876 uM stock concentration) added to the assay buffer mix. […] Plates were read on a Viewlux (PerkinElmer, 613 nm emission filter, 300 sec dual-exposure, (10 min. total read time)).
The Abase database was used to analyze the data. […] Dose-response curves were analyzed using a four-parameter logistic fit and results were expressed as pIC50 values. […]

Each structure is given as a SMILES string. Values after ≈ are worked out from the molar mass of the structure shown.

Sequence of Full-length human DNMT1 (P26358 whole entry): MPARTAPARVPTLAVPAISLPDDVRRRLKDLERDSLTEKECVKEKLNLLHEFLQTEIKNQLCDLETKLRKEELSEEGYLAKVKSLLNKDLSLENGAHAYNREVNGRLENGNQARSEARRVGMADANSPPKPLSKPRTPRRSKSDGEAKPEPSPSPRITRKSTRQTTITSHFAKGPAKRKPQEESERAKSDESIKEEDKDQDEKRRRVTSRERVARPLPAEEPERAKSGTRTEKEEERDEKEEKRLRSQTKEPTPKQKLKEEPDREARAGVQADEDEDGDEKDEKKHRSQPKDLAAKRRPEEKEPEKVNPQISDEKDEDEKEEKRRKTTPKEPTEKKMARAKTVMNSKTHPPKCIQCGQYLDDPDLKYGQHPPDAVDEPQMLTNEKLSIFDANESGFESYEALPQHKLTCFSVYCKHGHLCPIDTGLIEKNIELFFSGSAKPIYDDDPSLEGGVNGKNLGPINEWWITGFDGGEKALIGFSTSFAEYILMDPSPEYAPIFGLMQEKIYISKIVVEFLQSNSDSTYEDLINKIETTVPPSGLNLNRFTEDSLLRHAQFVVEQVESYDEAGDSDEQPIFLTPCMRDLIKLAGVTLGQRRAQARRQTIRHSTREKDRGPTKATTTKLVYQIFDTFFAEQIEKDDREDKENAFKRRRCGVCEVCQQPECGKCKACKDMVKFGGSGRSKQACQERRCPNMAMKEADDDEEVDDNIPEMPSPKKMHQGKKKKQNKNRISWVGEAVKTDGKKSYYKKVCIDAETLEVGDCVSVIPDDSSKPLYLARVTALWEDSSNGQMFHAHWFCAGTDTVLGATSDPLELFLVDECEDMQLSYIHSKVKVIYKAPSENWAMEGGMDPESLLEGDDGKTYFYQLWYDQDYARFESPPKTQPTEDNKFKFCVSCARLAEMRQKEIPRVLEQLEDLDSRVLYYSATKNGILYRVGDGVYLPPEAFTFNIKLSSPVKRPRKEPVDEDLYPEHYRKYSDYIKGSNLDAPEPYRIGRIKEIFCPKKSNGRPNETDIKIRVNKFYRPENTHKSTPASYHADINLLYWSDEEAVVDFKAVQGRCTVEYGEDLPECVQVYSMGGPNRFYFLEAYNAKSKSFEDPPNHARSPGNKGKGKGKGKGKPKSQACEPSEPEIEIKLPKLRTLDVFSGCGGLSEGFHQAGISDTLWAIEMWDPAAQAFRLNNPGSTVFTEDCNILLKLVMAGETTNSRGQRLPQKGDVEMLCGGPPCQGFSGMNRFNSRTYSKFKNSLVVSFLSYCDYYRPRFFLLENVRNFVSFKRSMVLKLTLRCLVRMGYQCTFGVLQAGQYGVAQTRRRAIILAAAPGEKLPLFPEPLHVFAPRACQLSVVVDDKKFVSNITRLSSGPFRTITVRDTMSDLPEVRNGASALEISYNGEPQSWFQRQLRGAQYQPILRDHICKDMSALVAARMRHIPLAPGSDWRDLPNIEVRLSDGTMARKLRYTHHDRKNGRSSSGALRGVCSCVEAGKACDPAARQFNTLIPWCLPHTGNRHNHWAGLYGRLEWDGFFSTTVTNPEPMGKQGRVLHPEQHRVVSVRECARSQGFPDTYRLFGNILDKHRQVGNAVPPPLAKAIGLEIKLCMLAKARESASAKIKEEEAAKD
Sequence of Human truncated DNMT1(601-1600) (P26358 601-1600): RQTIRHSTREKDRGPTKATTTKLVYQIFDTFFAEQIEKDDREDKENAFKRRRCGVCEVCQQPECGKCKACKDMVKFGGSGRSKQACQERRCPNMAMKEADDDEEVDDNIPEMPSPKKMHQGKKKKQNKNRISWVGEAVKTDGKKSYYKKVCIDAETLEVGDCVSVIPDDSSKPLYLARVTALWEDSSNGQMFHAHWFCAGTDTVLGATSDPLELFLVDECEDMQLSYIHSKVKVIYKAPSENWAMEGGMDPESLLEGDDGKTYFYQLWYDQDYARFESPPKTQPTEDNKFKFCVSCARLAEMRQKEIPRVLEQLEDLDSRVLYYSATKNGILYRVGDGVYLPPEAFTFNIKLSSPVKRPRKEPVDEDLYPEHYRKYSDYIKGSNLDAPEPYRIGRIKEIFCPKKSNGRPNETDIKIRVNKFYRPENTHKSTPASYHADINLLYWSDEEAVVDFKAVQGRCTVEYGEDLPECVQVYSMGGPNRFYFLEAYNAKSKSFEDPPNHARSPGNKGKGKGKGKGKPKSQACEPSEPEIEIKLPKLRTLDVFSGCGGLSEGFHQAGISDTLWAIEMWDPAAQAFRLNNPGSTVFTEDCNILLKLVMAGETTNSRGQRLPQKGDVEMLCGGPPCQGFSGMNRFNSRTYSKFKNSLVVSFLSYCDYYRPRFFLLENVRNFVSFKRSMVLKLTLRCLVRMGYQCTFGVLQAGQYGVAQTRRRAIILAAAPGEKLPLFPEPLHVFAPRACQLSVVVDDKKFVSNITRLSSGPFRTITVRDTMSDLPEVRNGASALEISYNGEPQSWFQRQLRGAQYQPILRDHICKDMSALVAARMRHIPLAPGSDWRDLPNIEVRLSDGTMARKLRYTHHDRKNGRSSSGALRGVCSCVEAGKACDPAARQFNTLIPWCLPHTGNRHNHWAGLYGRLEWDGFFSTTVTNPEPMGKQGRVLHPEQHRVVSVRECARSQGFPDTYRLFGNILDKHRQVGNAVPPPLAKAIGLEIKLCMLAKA
Procedure for physchem: Solubility of Solid Compounds in Fasted Simulated Intestinal Fluid
The solubility of solid compounds in Fasted Simulated Intestinal Fluid (FaSSIF) was determined at pH 6.5 after 4 hour equilibration at room temperature (using procedures described in Sou, T.; Bergström, C. A. S. Automated assays for thermodynamic (equilibrium) solubility determination. Drug Discovery Today: Technologies 2018, 27, 11-19). 1 ml of FaSSIF buffer (3 mM Sodium taurocholate, 0.75 mM lecithin in sodium phosphate buffer at pH6.5) was added to manually weighed 1 mg of solid compound in a 4 ml vial. The resulting suspension was shaken at 900 rpm for 4 hours at room temperature and then transferred to a Multiscreen HTS, 96-well solubility filter plate to separate the residual solid and the filtrate. Quantification of the compound concentration in the filtrate was performed by HPLC-UV using single point calibration of a known concentration of the compound in DMSO. […] The dynamic range of the assay was 1-1000 μg/ml.

On Full-length human DNMT1, `CCc1c(C#N)c(SC(C(N)=O)c2ccc(OS(C)(=O)=O)cc2)nc(N(C)C)c1C#N` (racemic) [Example 4, 4-(2-amino-1-((3,5-dicyano-6-(dimethylamino)-4-ethylpyridin-2-yl)thio)-2-oxoethyl)phenyl methanesulfonate] returned an IC50 of 0.107 µM. This compound came in with a solubility at 4 h in the data set “physchem” of less than 1 µg/mL. `CC(=O)CC(c1ccccc1)c1c(O)c2ccccc2oc1=O` (stereo not drawn) [Warfarin]: in data set [1], the “known solubility of internal standards” value was 140 µg/mL. Turning to `CCc1c(C#N)c(S[C@@H](C(N)=O)c2ccccc2)nc(N(C)C)c1C#N` [Reference compound 1, reference compound], the solubility at 4 h in the data set “physchem” was less than 1 µg/mL.

The compound `CCc1c(C#N)c(S[C@@H](C(N)=O)c2ccc(OS(C)(=O)=O)cc2)nc(N(C)C)c1C#N` [Example 2, (R)-4-(2-amino-1-((3,5-dicyano-6-(dimethylamino)-4-ethylpyridin-2-yl)thio)-2-oxoethyl)phenyl methanesulfonate] showed a half-maximal inhibitory concentration (IC50) at Full-length human DNMT1 of 0.054 µM. This compound also showed a bioavailability in data set [2] (non-fasted male Wistar Han rats, n=3/dose route) of 40%. In the data set “physchem”, this compound registered a solubility at 4 h of 1 µg/mL. Compound `CCc1c(C#N)c(S[C@@H](C(N)=O)c2ccccc2)nc(N2CC[C@H](O)C2)c1C#N` [Reference compound 2, reference compound] had an IC50 on Full-length human DNMT1 of 0.156 µM. Besides, the concentration in solution in the data set “physchem” (solubility at 4 h) was 2.7 µg/mL (≈ 6.63 µM). The like results for `CCc1c(C#N)c(SC(C(=O)NP(=O)(O)O)c2ccc(OS(C)(=O)=O)cc2)nc(N(C)C)c1C#N` (stereo not drawn) [Example 3, (2-((3,5-dicyano-6-(dimethylamino)-4-ethylpyridin-2-yl)thio)-2-(4-((methylsulfonyl)oxy)phenyl)acetyl)phosphoramidic acid] were, in that order, 5.21 µM and more than 1000 µg/mL. Compound `CCc1c(C#N)c(SC(C(N)=O)c2ccc(Cl)cc2)nc(N(C)C)c1C#N` (stereo not drawn) [Reference compound 3] had an IC50 in data set [3] of 0.631 µM. With `CCc1c(C#N)c(S[C@@H](C(N)=O)c2ccc(OC)cc2)nc(N2CC[C@H](O)C2)c1C#N` [Reference compound 4, reference compound], the half-inhibitory concentration (IC50) in data set [3] is 0.079 µM. For the same compound, the bioavailability in data set [2] (non-fasted male Sprague-Dawley rats, n=2/dose route) turned out to be 6.1%. In addition, the concentration in solution in “physchem” (solubility at 4 h) was 4 µg/mL (≈ 9.14 µM).

As usually defined, the IC50 is the concentration at which inhibition is half-maximal. The low end stands for greater potency, the high end for weaker potency. For orientation: solubility means the dissolved amount per volume that the medium holds. A higher solubility goes with much dissolved substance. As usually defined, the bioavailability is dose-corrected exposure relative to a reference, in per cent. The low end stands for little systemic uptake, the high end for much systemic uptake.
